# Data published in PMC12502564, “Evaluation of LLM-generated peptide as foundation template for discovery of effective encrypted AMPs against clinical superbugs” (Microbiology Spectrum, 2025).
# No end group written: not given here.
# Experiments:
# E. coli ATCC25922 = format: cell-based, Escherichia coli
# Method: (§1) The MIC of all peptides was determined using the microdilution broth method in a 96-well plate. Peptides were dissolved in the DMSO with an initial concentration of 12,800 µg mL^−1. And cells of eight strains were separately suspended in the MHB at a density of approximately 10^5 CFU mL^−1. In the first column of the 96-well plate, 16 µL of peptide and 184 µL of MHB were added to each well to achieve a final concentration of 1,024 µg mL^−1. One-hundred microliters of MHB was added to each of the remaining wells. Then the first column of liquid was mixed well and diluted to the 12th column using the twofold dilution method. One-hundred microliters of prepared bacterial solution was added to all wells, and the 96-well plate was incubated at 37°C for 18–24 h. The MIC was defined as the concentration of the peptide in the well just preceding the first well showing visible turbidity. All experiments were performed in triplicate to ensure reliability.
# CRAB [1] = assay: Time-kill curve; format: cell-based, carbapenem-resistant Acinetobacter baumannii; details: ~10^5 CFU mL^−1 in MH broth
# Method: (§2) Bacteria in the logarithmic growth phase were diluted to approximately 10^5 CFU mL^−1 in MH broth and treated with peptides, polymyxin B, or vancomycin at final concentrations of 1/2 × MIC, 1 × MIC, 2 × MIC, and 4 × MIC. After the addition of the test compound, samples were taken at 0, 3, 6, 9, 12, and 24 h and serially diluted. Subsequently, 5 µL of the diluted samples were spread on agar plates and incubated at 37°C for 20 h. The bacterial concentration CFU mL^−1 at the corresponding time point of each sample was calculated based on the number of colonies on the agar plate, and the log10 (CFU mL^−1) was plotted against time (h).
# CRPA 2403282 = format: cell-based, carbapenem-resistant P. aeruginosa
# Method: as §1
# [2] = system: all eight bacterial strains; format: cell-based, gram-positive and gram-negative bacteria; details: judged from MICs on eight strains
# Method: as §1
# CRAB 2210186 [3] = details: 10% fetal bovine serum, room temperature, 1–6 h, then MIC assay, triplicate
# Method: (§3) For serum sensitivity experiments, the peptide to be tested was incubated in 10% fetal bovine serum at room temperature for 1–6 h. After deactivation, the MICs of peptides against CRAB 2210186 and MRSA 2210187 were measured using the MIC assay. All experiments were performed in triplicate to ensure reliability.
# CRAB [4] = assay: PI assay, cytoplasmic membrane integrity; format: cell-based, carbapenem-resistant Acinetobacter baumannii; details: 1 × MIC, 10^8 CFU mL^−1
# Method: PI (which is known to stain nuclear chromatin upon cell membrane disruption) assay was carried out to evaluate the ability of AMPs to disrupt the cytoplasmic membrane integrity ([63]). After CRAB was grown to the exponential phase, bacteria cells were harvested and washed three times in washing buffer of 5 mM glucose and 5 mM HEPES (1:1, pH = 7.2) and then re-adjusted to 10^8 CFU mL^−1 in the same buffer. Bacterial suspensions (150 µL/well) were loaded into black-walled, clear-bottom 96-well plates with lids. Following bacterial loading, 50 µL of 10 µM PI was introduced into each well, with 30 min pre-incubation CRAB. Post-incubation fluorescence signals were acquired using 535 nm excitation and 617 nm emission wavelengths. Compounds (10 µL) were then administered to achieve 1 × MIC/10 × MIC-equivalent final concentrations in the dye-loaded bacterial suspensions. Real-time fluorescence monitoring was performed with continuous acquisition during the first 10 min, followed by measurements at 10-min intervals. Negative controls received 10 µL sterile water in lieu of antimicrobial peptides while maintaining equivalent pre-incubation conditions. All experimental conditions were executed with three biological replicates.
# sheep red blood cells = assay: Hemolysis test; format: cell-based; details: 4% sheep red blood cell suspension in PBS, 37°C, 1 h, OD 450 nm, log2-transformed
# Method: Freshly collected sheep red blood cells, provided by Solarbio (Beijing, China), were washed three times with PBS to prepare a red blood cell suspension (2,000 rpm). Subsequently, the resulting red blood cells were suspended in 1 × PBS buffer and adjusted to a 4% red blood cell suspension. In a 96-well plate, perform twofold serial dilutions of the test peptides in 1 × PBS to final concentrations of 512, 256, 128, 64, 32, 16, 8, 4, 2, 1, 0.5, and 0.25 µg mL^−1 in each well. Use Triton X-100 as a positive control and 1 × PBS buffer as a negative control. Take 100 µL of red blood cell solution and 100 µL of peptide solutions with different concentration gradients and control solutions, add them to a new 96-well plate, and incubate at 37°C for 1 h. Subsequently, the 96-well plate was centrifuged at 4,000 rpm for 10 min, and the supernatant was collected into a 96-well plate for later use. Then the absorbance was measured at a wavelength of 450 nm using a microplate reader. All experiments were repeated in three parallel groups and averaged. The hemolysis rate was calculated by the following formula and the IC50 value of each AMPs was calculated by online tools: https://www.aatbio.com/tools/ic50-calculator.
# (1) Hemolysis rate (%)=OD(AMP)− OD(PBS)/OD(TritonX−100)− OD(PBS)×100%
# MRSA = assay: Time-kill curve; format: cell-based, methicillin-resistant Staphylococcus aureus; details: ~10^5 CFU mL^−1 in MH broth
# Method: as §2
# CRAB 2210186 [5] = format: cell-based, carbapenem-resistant Acinetobacter baumannii
# Method: as §1
# CRAB [6] = assay: MBC determination, MBC/MIC ratio; format: cell-based, carbapenem-resistant Acinetobacter baumannii; details: MBC/MIC ≤4 is considered bactericidal
# Method: The MBC was determined using the microdilution broth method described above for MIC determination. After identifying the clear wells (no growth), 10 µL of the liquid from these wells was transferred and spread on a nutrient agar plate. The plate was incubated at 37°C for 18–24 h. […] The lowest concentration with no visible growth was considered the MBC.
# MRSA 2210187 = details: 10% fetal bovine serum, room temperature, 1–6 h, then MIC assay, triplicate
# Method: as §3
sequence,measurement,setting,value
WLKRILKWIGNKLKW [PL-15],MIC,E. coli ATCC25922,lower than 11 µg mL^−1
same,time to kill CRAB,CRAB [1]; 1/2 × MIC,≤ 6 h
same,time to kill CRAB,CRAB [1]; 1 × MIC,≤ 6 h
same,time to complete bacterial eradication of CRAB,CRAB [1]; 2 × MIC,≤ 3 h
same,time to kill CRAB,CRAB [1]; 4 × MIC,≤ 3 h
same,MIC,CRPA 2403282,64 µg/mL
same,antimicrobial spectrum,[2],broad-spectrum antimicrobial properties
same,fold change in MIC after incubation in serum,CRAB 2210186 [3],maximum twofold increase
same,PI fluorescence (cytoplasmic membrane integrity),CRAB [4],stronger fluorescence signal compared to polymyxin B and control
same,log2IC50 (50% hemolytic concentration),sheep red blood cells,≥ 3
same,time to eliminate MRSA,MRSA; 1/2 × MIC,≤ 6 h
same,time to complete bacterial eradication of MRSA,MRSA; 1 × MIC,≤ 6 h
same,time to full bacterial killing of MRSA,MRSA; 2 × MIC,≤ 3 h
same,time to full bacterial killing of MRSA,MRSA; 4 × MIC,≤ 3 h
same,MIC,CRAB 2210186 [5],4 µg/mL
same,bactericidal classification by MBC/MIC ratio,CRAB [6],bactericidal effects
same,fold change in MIC after incubation in serum,MRSA 2210187,maximum twofold increase
